Reference: PubChem BioAssay AID493130 (Broad Institute, 2011)
Records with an inconclusive call do not appear. Calls of active or inactive are those of the source.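 The calls were made as follows: active = signal-lowering compounds whose fitted half-maximal concentration is at most ten times their highest tested dose; inconclusive = flat fit between -30 and -70%, or poor fit; inactive = flat within 30%, signal rising, or potency beyond limit.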

Each compound was assayed against POS-1 (Caenorhabditis elegans) binding to mex-3 RNA (assay: inhibitors of POS-1/mex-3 RNA binding, dose response, counter-screen for MEX-5 RNA-binding inhibitor project, biochemical, fluorescence polarization, cherry-picked samples, set 2 (AID 493130;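 also: POS-1 as maltose binding protein fusion made in E. coli with FITC RNA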)). Conditions: POS-1/mex-3 RNA fluorescence polarization, 1 h.
`CNC(=O)/C(C#N)=C/c1ccc(-c2nc3ccccc3s2)o1` gave an AC50 of 3.91 µM.
`Cc1ccc(C(=O)NNC(=O)c2ccc3ccccc3c2O)cc1` was tested, and the AC50 was 7.78 µM.
Compound `O=c1ccc2cc3c([nH]c4ccc(Br)cc43)oc-2c1O` has an AC50 of 1.64 µM.
For `Cc1cccc(N=Nc2c(O)[nH]c3ccc(F)cc23)c1`, the AC50 was 1.87 µM.
`Cc1[nH][nH]c(=O)c1C(c1ccc(O)c([N+](=O)[O-])c1)c1c(C)[nH][nH]c1=O` showed an AC50 of 7.84 µM.
For `O=C(O)C1Nc2c(Cl)cc(Cl)cc2C2C=CCC12` (centres undefined), the AC50 was 5.13 µM.
For `O=C1NC2=C(C(=O)CCC2)C(c2ccccc2[N+](=O)[O-])N1` (centres undefined), the AC50 was > 10 µM (inactive).
With `CC(=O)Nc1cccc(C2=CC(c3ccco3)n3ncnc3N2)c1` (centres undefined) the AC50 was 5.81 µM.

Same assay, conditions: POS-1/mex-3 RNA fluorescence polarization, 1 h; at 10 µM (top of the series)
With `CN(C)c1ccc(/C=N/NC(=O)c2cnc3ccccc3c2)cc1` the “activity change, negative = inhibition” value was “inactive”.
With `Cc1cc(/C=C2/C(=N)N3C(=NC2=O)SN=C3S(C)(=O)=O)c(C)n1-c1ccc(F)cc1` the “activity change, negative = inhibition” value was “inactive”.
`Cn1c(O)c(N=Nc2ccc(F)cc2)c2ccccc21` was tested, and the “activity change, negative = inhibition” value was “inactive”.
For `Brc1ccc(-c2cn3nc4c(nc3n2)CCCC4)cc1`, the “activity change, negative = inhibition” value was “inactive”.
With `O=C(O)c1ccc2c(c1)C(=O)/C(=C/c1ccccc1)C2=O` the “activity change, negative = inhibition” value was “inactive”.
With `Cc1cccn2c(=O)c3cc(C(=O)NCCCn4ccnc4)n(C)c3nc12` the “activity change, negative = inhibition” value was “inactive”.
For `Cc1ccc(N2C(=O)c3ccc(C(=O)O)cc3C2=O)cc1C`, the “activity change, negative = inhibition” value was “inactive”.
`COc1cccc(NCc2cc(=O)oc3cc(C)c(O)cc23)c1` was tested, and the “activity change, negative = inhibition” value was “inactive”.
In the case of `COC(=O)c1cccc(-c2ccc(C(c3c(C)[nH][nH]c3=O)c3c(C)[nH][nH]c3=O)o2)c1`, the “activity change, negative = inhibition” value is reported as “inactive”.
In the case of `C#CCN1C(=O)S/C(=C\c2ccc(N3CCOCC3)cc2C)C1=O`, the “activity change, negative = inhibition” value is reported as “inactive”.
`Cc1cc(=O)[nH]c(SCc2nc3ccc([N+](=O)[O-])cc3[nH]2)n1` was tested, and the “activity change, negative = inhibition” value was “inactive”.
With `COc1ccc(/C=C2\SC(=S)N(CCCC(=O)Nc3ccccn3)C2=O)cc1OC` the “activity change, negative = inhibition” value was “inactive”.
For `CC1=Nc2cccc3cccc(c23)N1C`, the “activity change, negative = inhibition” value was “inactive”.
In the case of `CC1=C(C(=O)OCc2ccccc2)C(c2ccc(N(C)C)cc2)NC(=O)N1` (centres undefined), the “activity change, negative = inhibition” value is reported as “inactive”.
`CCOc1nc(-c2ccccc2)c2cc(Br)ccc2n1` was tested, and the “activity change, negative = inhibition” value was “inactive”.
For `Nc1ccc2nc(CN3CCOCC3)[nH]c2c1`, the “activity change, negative = inhibition” value was “inactive”.
`COc1cc(C=C2C(=O)c3ccccc3C2=O)cc(OC)c1OC` was tested, and the “activity change, negative = inhibition” value was “inactive”.
For `Fc1ccc(N=c2ssnc2Cl)c(F)c1`, the “activity change, negative = inhibition” value was “inactive”.
For `COC(=O)/C=C1/S/C(=N/NC(=O)c2ccc(Cl)cc2Cl)NC1=O`, the “activity change, negative = inhibition” value was “inactive”.
`CCOC(=O)NC(=O)/C(C#N)=C\Nc1sccc1C(=O)OC` was tested, and the “activity change, negative = inhibition” value was “inactive”.
`Cn1ncc2c(NNC(=O)c3ccc(Cl)cc3Cl)ncnc21` was tested, and the “activity change, negative = inhibition” value was “inactive”.
For `O=C(Nc1nccs1)c1ccc(-c2ccc(Cl)cc2)o1`, the “activity change, negative = inhibition” value was “inactive”.
`COc1ccc2nc3ccccc3nc2c1NC(=O)c1ccc(Cl)cc1` was tested, and the “activity change, negative = inhibition” value was “inactive”.
With `COc1cc2c(cc1OC)[C@@H](Cc1ccc(OCCC#N)cc1)N(C)CC2` the “activity change, negative = inhibition” value was “inactive”.
For `COc1ccc(N=Nc2c(C)[nH][nH]c2=O)cc1`, the “activity change, negative = inhibition” value was “inactive”.
`COc1ccc(-c2cn[nH]c2-c2ccc(OCC(=O)NN)cc2O)cc1` was tested, and the “activity change, negative = inhibition” value was “inactive”.
With `O=c1cc[nH]c2c1ccc1c(=O)cc[nH]c12` the “activity change, negative = inhibition” value was “inactive”.
For `COc1ccc(NCc2cccnc2)cc1`, the “activity change, negative = inhibition” value was “inactive”.
In the case of `Nc1nc(Cl)nc2ccc(Br)cc12`, the “activity change, negative = inhibition” value is reported as “inactive”.
With `CCOC(=O)N1CCN(c2nc3ccccc3nc2C(C#N)C(=O)NCCc2ccccc2)CC1` (centres undefined) the “activity change, negative = inhibition” value was “inactive”.
In the case of `Cc1ccccc1S(=O)(=O)NNC(=O)C(=O)NNc1ccccn1`, the “activity change, negative = inhibition” value is reported as “inactive”.
For `OC(CNC1CCCC1)COc1ccccc1Br` (centres undefined), the “activity change, negative = inhibition” value was “inactive”.
With `O=C(O)c1ccc(NCc2cccnc2)cc1` the “activity change, negative = inhibition” value was “inactive”.
With `COCCNc1ncnc2nc[nH]c12` the “activity change, negative = inhibition” value was “inactive”.
`Cc1ccc(Nc2nc(-c3ccc(C)cc3)c(CC(=O)O)s2)cc1` was tested, and the “activity change, negative = inhibition” value was “inactive”.
With `COc1ccc(CCNc2c3ccccc3nc3ccccc23)cc1OC` the “activity change, negative = inhibition” value was “inactive”.
`Cc1ccc(C(=O)N/N=C\c2cc(Br)c(Br)o2)cn1` was tested, and the “activity change, negative = inhibition” value was “inactive”.
With `NC(=S)N=Nc1c(O)[nH]c2cc(F)c(F)cc12` the “activity change, negative = inhibition” value was “inactive”.
For `O=C(O)c1c2c(nc3ccccc13)/C(=C/c1ccc(O)cc1)CC2`, the “activity change, negative = inhibition” value was “inactive”.
`CC1(OC(=O)c2ccc(Cl)nc2)C(=O)C=C2C=C(c3ccc(C#N)cc3)OC=C2C1=O` (centres undefined) was tested, and the “activity change, negative = inhibition” value was “inactive”.
With `O=c1[nH]nc(CNc2ccc(OC(F)(F)F)cc2)c2ccccc12` the “activity change, negative = inhibition” value was “inactive”.
In the case of `CCC(COC(C)=O)Nc1nc2c([nH]1)c(=O)n(C)c(=O)n2C` (centres undefined), the “activity change, negative = inhibition” value is reported as “inactive”.
With `CC1=NN(C(N)=S)C(=O)C1N=Nc1cccc(Cl)c1C` (centres undefined) the “activity change, negative = inhibition” value was “inactive”.
`CC(C)=CCc1c(O)cc(O)c2c(=O)c(O[C@@H]3O[C@@H](C)[C@H](O)[C@@H](O)[C@H]3O)c(-c3ccc(O)cc3)oc12` was tested, and the “activity change, negative = inhibition” value was “inactive”.
With `Cc1ccc(-c2cc(C(=O)O)c3cc(Br)ccc3n2)o1` the “activity change, negative = inhibition” value was “inactive”.
With `O=C(NC1CCSc2ccccc21)c1ccc([N+](=O)[O-])cc1` (centres undefined) the “activity change, negative = inhibition” value was “inactive”.
In the case of `COC(=O)COc1ccc2c(c1)O/C(=C\c1cccc([N+](=O)[O-])c1)C2=O`, the “activity change, negative = inhibition” value is reported as “inactive”.
With `Oc1[nH]c(N=C2N=c3ccccc3=N2)c2ccccc12` the “activity change, negative = inhibition” value was “inactive”.
With `COCCn1c(=N)c(S(=O)(=O)c2ccc(F)cc2)cc2c(=O)n3ccccc3nc21` the “activity change, negative = inhibition” value was “inactive”.
In the case of `CCN=c1scc(-c2ccco2)n1/N=C/c1ccc(O)cc1`, the “activity change, negative = inhibition” value is reported as “inactive”.
In the case of `Cc1c(N=NC2=C(O)CCCC2=O)c(=O)n(-c2ccccc2)n1C`, the “activity change, negative = inhibition” value is reported as “inactive”.
For `O=[N+]([O-])c1cc([N+](=O)[O-])c2cccnc2c1Oc1ccccc1O`, the “activity change, negative = inhibition” value was “inactive”.
In the case of `Cc1nc2c(N=Nc3ccccc3F)c(N)nn2c(N)c1C#N`, the “activity change, negative = inhibition” value is reported as “inactive”.
In the case of `COc1ccc(-c2csc(Nc3ccc(S(N)(=O)=O)cc3)n2)cc1OC`, the “activity change, negative = inhibition” value is reported as “inactive”.
In the case of `CCCc1cc(C(=O)Cc2ccc(C(=O)OCC)o2)c(O)cc1O`, the “activity change, negative = inhibition” value is reported as “inactive”.
`CCS(=O)(=O)C1=NN2C(=N)/C(=C\c3ccc(SCc4ccco4)o3)C(=O)N=C2S1` was tested, and the “activity change, negative = inhibition” value was “inactive”.
